Data: patent US9650399B2, “Salicylic acid derivatives, pharmaceutically acceptable salt thereof, composition thereof and method of use thereof” (The Governing Council of the University of Toronto, priority 2012, dated 2017)
“Also recorded” adds a separate entry of the source. Like-named read-outs stand apart in the source and are kept apart here.

Key:
pSTAT3 (Y705) = assay: Western blot of phosphorylated STAT3 in BTSCs; type: cell-based, human; settings: for suppression of pSTAT3 (Y705): 1 μM
Source text: Blots were stained with antibodies: phospho-Y705, phospho-S727, Bcl-xL, cyclin D1, PARP and Actin. Bands were visualized with the ECL PLUS™ Western Blotting Detection System and […]™ (Amersham). […] BTSC spheres were lysed in modified RIPA buffer supplemented with Complete Mini protease (Roche) and Halt phosphatase (Thermo Scientific) inhibitor cocktails. […] Blots were stained with the following antibodies: phospho-STAT3 Y705 (1:1000, Cell Signalling Technology), phospho-STAT3 S727 (1:1000, Cell Signalling Technology), STAT3 (1:1000, Santa Cruz Biotechnology), Bcl-xL (1:1000, Cell Signalling Technology), cyclin D1 (1:1000, Cell Signalling Technology) PARP (1:1000, Cell Signalling Technology) and Actin (1:2500, Santa Cruz Biotechnology). HRP conjugated secondary antibodies, goat anti-rabbit (Cell Signalling Technology) were used at 1:2000 and donkey anti-mouse, donkey anti-goat, and goat anti-rabbit, (Calbiochem) were used at 1:6000. Bands were visualized with the ECL Plus Western Blotting Detection System and Hyperfilm (Amersham).

BTSC30M = assay: alamarBlue cell viability, BTSC 30M; type: cell-based, human; settings: Homo sapiens
Method in brief: (§1)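 Patient-derived GBM brain tumour stem cells, dissociated spheres seeded at 1500 cells/96-well, or 3000 cells/96-well in one setup. Drug or DMSO vehicle added one day after plating. Viability read by alamarBlue after 72 hrs, triplicate wells.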

BTSC68EF = assay: alamarBlue cell viability, BTSC 68EF; type: cell-based, human; settings: Homo sapiens, read-out: 68EF IC50 (μM)
Method in brief: as §1

147EF = assay: alamarBlue cell viability, BTSC 147EF; type: cell-based, human; settings: Homo sapiens, Table 4 library screen
Method in brief: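 Glioma stem-cell spheres were dissociated to single cells and plated at 1500 cells/well (3000 cells/well in the repeat set). Serial dilutions were added one day after plating: 5 μM–100 nM in the first set, 25 μM–10 nM in the second. Viability was read by alamarBlue three days later, in triplicate.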

c-Src = biological target: T1, c-Src (Homo sapiens, UniProt P12931); assay: HotSpot radiometric kinase assay, c-Src; type: biochemical; settings: 5 uM compound, 10 μM ATP, duplicate (Data 1, Data 2); for remaining activity at 5 µM: read-out: % Enzyme activity relative to DMSO (control), c-Src
T1 construct: purchased Reaction Biology Corporation
Protocol: (§2) Briefly, this assay employs a radiometric detection system to measure kinase phosphoryl transfer activity.
(§3) Test compound was evaluated at a single dose of 5 μM in duplicate mode. […] Reactions were carried out at 10 μM ATP.
(§4) Preliminary screen against AKT, c-Src, ERK1, JaK1 and JaK2 was performed at Reaction Biology Corporation (www.reactionbiology.com, Malvern, Pa.) using the “HotSpot” assay platform. Specific kinase/substrate pairs along with their required cofactors were prepared in reaction buffer; 20 mM Hepes pH 7.5, 10 mM MgCl2, 1 mM EGTA, 0.02% Brij35, 0.02 mg/ml BSA, 0.1 mM Na3VO4, 2 mM DTT, 1% DMSO. The screen was completed in duplicate at a single concentration of 5 μM. The reaction well with the subject compound was treated with a mixture of ATP (Sigma, St. Louis Mo.) and ^33P ATP (Perkin Elmer, Waltham Mass.) to a final concentration of 10 μM. […] Reaction wells were kept at room temperature for 120 minutes, followed by spotting each of the reactions onto P81 ion exchange filter paper (Whatman Inc., Piscataway, N.J.). […] Background was subtracted using control reactions and the kinase activity data was expressed as the percent remaining kinase activity in test samples compared to vehicle (dimethyl sulfoxide) reactions. All IC50 values (table 3) and curve fitting were produced using Prism (GraphPad Software) (FIG. 5).

JAK2 = biological target: T2, JAK2 (Homo sapiens, UniProt O60674); assay: HotSpot radiometric kinase assay, JAK2; type: biochemical; settings: 5 uM compound, 10 μM ATP, duplicate (Data 1, Data 2); for remaining activity at 5 µM: read-out: % Enzyme activity relative to DMSO (control), JAK2
T2 construct: purchased Reaction Biology Corporation
Protocol: as §2, §3, §4

BTSC73M = assay: alamarBlue cell viability, BTSC 73M; type: cell-based, human; settings: Homo sapiens
Method in brief: as §1

Prostate (DU145) = assay: IC50 in prostate cancer cells; type: cell-based; settings: Homo sapiens, DU-145; Table 6
[1] = tested on: normal human fetal astrocytes (HF 2003, HF 2006, HF 2009, HF 2013); assay: toxicity in normal human fetal astrocytes; type: cell-based; settings: concentrations of up to 5 μM
Protocol: Given the nM cytoxicity, these compounds were assayed for biological effects in healthy cells.
GBM BTSCs were cultured from a series of tumor specimens obtained following informed consent from adult GBM patients during their operative procedure as previously described (Kelly et al, Stem Cells 2009) and approved by the University of Calgary Ethics Review Board. Briefly, BTSC cultures were initiated in serum-free defined culture medium (SFM) and gave rise to nonadherent spheres after 7 to 21 days in culture. Primary tumor spheres were expanded for several passages and then cryopreserved in 10% DMSO (Sigma Aldrich) in serum-free defined medium until use in experiments. Human fetal neural stem cells were also cultured as previously described and induced to differentiate into astrocytes by addition of 10% fetal bovine serum and removal of EGF, FGF-2 and heparan sulfate.

[2] = read-out: IC50 (nM) in BTSC 30M
[3] = remaining activity, listed as SH-05-07

T2 sequence (O60674 whole entry): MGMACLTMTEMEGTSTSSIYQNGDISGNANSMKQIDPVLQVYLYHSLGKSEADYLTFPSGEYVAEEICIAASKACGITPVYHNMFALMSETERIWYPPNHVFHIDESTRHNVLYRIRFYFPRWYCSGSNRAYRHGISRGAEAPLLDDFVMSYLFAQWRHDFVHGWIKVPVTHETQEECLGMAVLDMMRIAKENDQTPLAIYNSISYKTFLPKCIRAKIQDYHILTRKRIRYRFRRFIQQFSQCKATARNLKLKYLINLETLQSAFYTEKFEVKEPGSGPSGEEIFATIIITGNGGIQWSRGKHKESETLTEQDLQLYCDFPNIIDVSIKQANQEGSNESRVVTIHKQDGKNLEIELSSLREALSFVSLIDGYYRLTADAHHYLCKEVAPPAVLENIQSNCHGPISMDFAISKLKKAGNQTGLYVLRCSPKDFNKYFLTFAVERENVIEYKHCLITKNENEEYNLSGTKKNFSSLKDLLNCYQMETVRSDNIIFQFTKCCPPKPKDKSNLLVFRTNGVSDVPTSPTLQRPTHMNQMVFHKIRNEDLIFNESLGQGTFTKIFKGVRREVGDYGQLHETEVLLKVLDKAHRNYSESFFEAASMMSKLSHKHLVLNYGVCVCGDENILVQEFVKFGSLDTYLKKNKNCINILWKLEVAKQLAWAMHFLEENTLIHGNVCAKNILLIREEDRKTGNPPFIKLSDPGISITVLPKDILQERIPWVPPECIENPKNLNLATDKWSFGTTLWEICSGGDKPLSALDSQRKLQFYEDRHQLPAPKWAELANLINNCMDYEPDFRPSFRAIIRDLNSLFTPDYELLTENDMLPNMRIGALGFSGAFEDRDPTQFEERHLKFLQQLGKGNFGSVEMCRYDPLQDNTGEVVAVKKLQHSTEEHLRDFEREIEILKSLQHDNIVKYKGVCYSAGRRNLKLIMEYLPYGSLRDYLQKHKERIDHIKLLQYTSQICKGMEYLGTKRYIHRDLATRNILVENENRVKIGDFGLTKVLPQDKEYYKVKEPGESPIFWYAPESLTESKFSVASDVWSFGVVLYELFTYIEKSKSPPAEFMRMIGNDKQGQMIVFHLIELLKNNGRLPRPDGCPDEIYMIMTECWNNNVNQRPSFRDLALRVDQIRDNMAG
T1 sequence (P12931 whole entry): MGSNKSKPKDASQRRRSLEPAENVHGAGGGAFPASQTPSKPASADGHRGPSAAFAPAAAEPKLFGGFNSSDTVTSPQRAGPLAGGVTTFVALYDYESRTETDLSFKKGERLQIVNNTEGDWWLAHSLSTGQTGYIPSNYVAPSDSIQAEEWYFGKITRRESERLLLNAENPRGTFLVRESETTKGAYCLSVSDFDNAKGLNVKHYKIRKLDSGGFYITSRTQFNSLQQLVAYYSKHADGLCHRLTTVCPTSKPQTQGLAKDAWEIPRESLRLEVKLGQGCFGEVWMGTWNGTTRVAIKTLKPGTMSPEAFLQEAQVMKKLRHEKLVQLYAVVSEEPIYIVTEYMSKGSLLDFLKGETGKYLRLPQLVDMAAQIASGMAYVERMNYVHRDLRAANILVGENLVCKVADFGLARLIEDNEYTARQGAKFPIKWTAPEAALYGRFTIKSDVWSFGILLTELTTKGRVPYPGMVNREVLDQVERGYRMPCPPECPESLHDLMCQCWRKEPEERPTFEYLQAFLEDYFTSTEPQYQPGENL

| SMILES | suppression of pSTAT3 (Y705) (pSTAT3 (Y705); Western blot, BTSCs) | IC50 (BTSC30M; [2]) | IC50 (BTSC68EF) | IC50 (147EF) | remaining activity at 5 µM (c-Src) | remaining activity at 5 µM (JAK2) | IC50 (Prostate (DU145)) | toxicity in normal human cells [1] | other results |
| --- | --- | --- | --- | --- | --- | --- | --- | --- | --- |
| CN(CC(=O)N(Cc1ccc(C2CCCCC2)cc1)c1ccc(C(=O)NO)cc1)S(=O)(=O)c1c(F)c(F)c(F)c(F)c1F [Compound 32, 4-(N-(4-cyclohexylbenzyl)-2-(2,3,4,5,6-pentafluoro-N-methylphenylsulfonamido)acetamido)-N-hydroxybenzamide] | most suppression of pSTAT3 (Y705) | 1.136 ± 0.009 µM | ~1.01 µM | 588 nM | 58.3% | 67.1% | 15900 nM | minimal toxicity | IC50 (BTSC30M; read-out: 30M IC50 (μM)): 1.14 µM; IC50 (BTSC30M; read-out: IC50 BTSC 30M): 0.971 µM; % Enzyme activity relative to DMSO (control), c-Src (c-Src; [3]): 54.21%; % Enzyme activity relative to DMSO (control), JAK2 (JAK2; [3]): 61.26%; IC50 (BTSC73M; read-out: 73M IC50 (μM)): 1.52 µM |
| CN(CC(=O)N(Cc1ccc(C2CCCCC2)cc1)c1ccc(C(=O)O)cc1)S(=O)(=O)c1c(F)c(F)c(F)c(F)c1F [Compound 31, 4-(N-(4-cyclohexylbenzyl)-2-(2,3,4,5,6-pentafluoro-N-methylphenylsulfonamido)acetamido)benzoic acid] | most suppression of pSTAT3 (Y705) | 0.432 ± 0.022 µM | 0.531 µM | 315 nM | 50.8% | 62% | 11300 nM | minimal toxicity; also recorded: no toxicity | pSTAT3 inhibition potency (pSTAT3 (Y705); 0, 0.1, 0.5, 1.0 and 5.0 μM, Western blot): concentration-dependant decreases in pSTAT3 levels; pSTAT3 signalling (pSTAT3 (Y705); 500 nM, Western blot, BTSCs): completely silenced pSTAT3 signalling; pSTAT3 suppression, comparative Western blot (pSTAT3 (Y705); BTSC 73M, 1 μM inhibitor): equipotent pSTAT3 suppression; IC50 (BTSC30M; read-out: 30M IC50 (μM), Table 4 library screen, alamarBlue): 0.432 µM; IC50 (BTSC30M; read-out: IC50 (μM) 30M, Table 2, BTSC 30M, alamarBlue, 72 hrs): 0.432 ± 0.022 µM; IC50 (BTSC30M; read-out: IC50 BTSC 30M, Table 6, in parallel with other cancer lines): 0.5 µM; IC50 (BTSC73M; Table 2, BTSC 73M, alamarBlue, 72 hrs, read-out: IC50 (μM) 73M): 1.03 ± 0.031 µM; IC50 (BTSC73M; Table 4 library screen, alamarBlue, read-out: 73M IC50): 1.03 µM |
